Data on 1 compound can be found in patent US20200016200A1, “MODULATING CYTOTOXIC CELL LYTIC GRANULE POSITIONING TO PROMOTE DIFFUSE KILLING IN CELLULAR THERAPIES” (Baylor College of Medicine, priority 2016, published 2020).

One experiment relates to CD19 CAR-bearing T cells. The experiment can be described thus: Live cell confocal microscopy of lytic granule positioning (LysoTracker Red). It is filed as cell-based. The note with it: for stimulation-induced lytic granule convergence: ciliobrevin D 50 μM vs DMSO, straight out of culture or 0.5 h post cytokine (IL-7, IL-15) re-addition. As to the method:
FIG. 17. […] Live cell confocal microscopy of CD19 CAR-bearing T cells untreated or treated with ciliobrevin D (30 and 100 μM). Lytic granule positioning was tracked using LysoTracker Red. […] Quantitative analyses of lytic granule distance from the MTOC are shown as a feature of the degree of granule convergence in CD19 CAR-bearing T cells.
FIG. 18. […] Live cell confocal microscopy of CD19 CAR-bearing T cells treated with DMSO or ciliobrevin D (50 μM). Lytic granule positioning was tracked using LysoTracker Red. […] The culture medium for CD19 CAR T cells contains IL-7 and IL-15. […] Quantitative analyses of lytic granule distance from the MTOC are shown as a feature of the degree of granule convergence in CD19 CAR-bearing T cells.
(§1) Specifically, the inventors have shown convergence in CD19 CAR T cells, CD19 CAR NK cells, PSCA CAR T cells, GD2 CAR NKT cells, HER2 CART cells, and glypican CAR T cells (FIG. 15A). Using a measurement of mean granule distance from the MTOC, CAR cells have varying degrees of converged lytic granules (FIG. 15B).

Another experiment relates to YTS cells. The experiment can be described thus: Standard 4-hour 51Cr cytotoxicity assay. The format is cell-based, human. The conditions noted are these: ciliobrevin D 100 μM vs DMSO. As to the method:
(§2) FIGS. 13A-13E. The effect of ciliobrevin D on degranulation and the increase of bystander killing by NK cells. Flow cytometry-based degranulation assay of NK cells treated with ciliobrevin D or DMSO as vehicle control. 721.221 cells were used as targets for YTS cells and K562 cells were used as targets for NK92 and eNK cells. DMSO or ciliobrevin D-treated NK cells were mixed with their respective target cells and co-cultured at 37° C. for 2 hours in the presence of anti-CD107a antibody, GolgiStop (BD) and analyzed using flow cytometry. Numbers in the representative flow cytometry plots indicate the percentage of CD107a positive eNK (13A), YTS (13B), or NK92 (13C) cells. Standard 4-hour 51Cr cytotoxicity assay of NK cells treated with ciliobrevin D (100 μM) or DMSO control. NK resistant Raji cells were used as innocent bystander cells. […] Bystander killing of Raji cells by YTS (13D, red) and NK92 (13E, red) cells both increased with ciliobrevin D treatment. Representative experiments from three independent experiments for YTS and NK92 cells were shown.
(§3) Because directed degranulation with converged granules promoted killing efficiency, ciliobrevin D was used to physically prevent convergence in a cell that had received a convergence signal. It was considered that this would allow us to abrogate the killing efficiency benefit imparted by lytic granule convergence. In order to measure killing of both the target and bystander cells in a single experiment, flow cytometry-based cytotoxicity assays were performed, wherein each cell line was labeled with a unique fluorescent dye in the presence of media containing SYTOX Blue viability indicator dye. […] The viability of YTS ([…]), NK92 (FIG. 14E, 14H) and eNK (FIG. 14F, 14I) was not affected by DMSO or ciliobrevin D treatments. […] To ask if it promoted more collateral damage by NK cells 51Cr-labeled Raji cells were added (to serve as innocent bystanders) along with unlabeled 721.221 or K562 target cells. […] YTS or NK92 cells co-cultured with 51Cr-labeled Raji cells in the absence of 721.221 or K562 were unable to kill Raji cells (FIG. 14J). […] Convergence therefore serves to protect innocent bystander cells in complex cellular environments.
(§4) Standard 51Cr-release assays were performed as previously described (Orange et al., 2011). Where indicated, 51Cr51-labeled target or “bystander” cells were mixed with unlabeled target or “bystander” cells to test the indirect lysis of targets. For ADCC, Raji cells were incubated with 20 μg/ml of rituximab in complete R10 medium for 20 min at 37° C., and washed three times before adding to eNK cells.
(§5) Where applicable, YTS, NK92 and eNK cells were pretreated with […] ciliobrevin D (Millipore) for 30 min then washed. […]

For another experiment, the system named is NK92 cells. Nature of the experiment: Standard 4-hour 51Cr cytotoxicity assay. It is filed as cell-based, human. The note with it: ciliobrevin D 100 μM vs DMSO. As for the experimental part: as §2, §3, §4, §5
The test system of another experiment is CD19 CAR NK cells. The experiment can be described thus: Standard 4-hour 51Cr cytotoxicity assay, bystander killing. It is filed as cell-based. The conditions noted are these: for more bystander cells lysed compared to DMSO: wildtype Daoy bystanders, Daoy-CD19 inciting targets. As for the experimental part: FIG. 22. Bystander killing with increasing amounts of ciliobrevin D in the presence of CD19 CAR-bearing NK cells. Standard 4-hour ^51Cr cytotoxicity assay of CD19 CAR NK cells treated with ciliobrevin D (12.5, 25, and 50 μM) or DMSO control. Daoy-CD19 cells were used as inciting target cells to activate CD19 CAR-bearing NK cells. Wildtype Daoy cells were used as innocent bystander cells to measure the degree of collateral damage caused by non-directional degranulation.
Similarly, compared to DMSO, ciliobrevin D-treated CD19 CAR NK cells lyse approximately 24%, 39% and 40% more bystander cells at the concentration of 12.5, 25 and 50 μM, respectively (FIG. 22). […] FIG. 23 and FIG. 24 are time-lapse images of videos of control ([…]) and ciliobrevin D-treated ([…]) CD19 CAR T cells. […] In the control group, however, lytic granules converge immediately upon interacting with the target cell and remain tightly clustered until target is killed by the CD19 CAR T cell as indicated by uptake of the SYTOX Blue viability dye.

The test system of a further experiment is GD2 CAR-bearing T cells. The experiment can be described thus: Live cell confocal microscopy of lytic granule positioning (LysoTracker Red). It is filed as cell-based. The note with it: ciliobrevin D 50 μM vs DMSO, straight out of culture or 0.5 h post cytokine (IL-7, IL-15) re-addition. As for the experimental part: FIG. 20. […] Live cell confocal microscopy of GD2 CAR-bearing T cells treated with DMSO or ciliobrevin D (50 μM). Lytic granule positioning was tracked using LysoTracker Red. […] The culture medium for GD2 CAR T cells contains IL-7 and IL-15. […] Quantitative analyses of lytic granule distance from the MTOC are shown as a feature of the degree of granule convergence in GD2 CAR-bearing T cells.
as §1

Entries after “also recorded” stand apart in the source; their conditions may differ.

As to `N#CC(C(=O)c1ccc(Cl)cc1Cl)=C1NC(=O)c2ccc(Cl)cc2N1` [ciliobrevin D, 2-(7-chloro-4-oxo-3,4-dihydroquinazolin-2(1H)-ylidene)-3-(2,4-dichlorophenyl)-3-oxopropanenitrile], the “stimulation-induced lytic granule convergence” value in the experiment with CD19 CAR-bearing T cells was “blocks stimulation-induced convergence”; in the experiment with CD19 CAR-bearing T cells (listed as Ciliobrevin D), “dispersed lytic granules”; in the experiment with GD2 CAR-bearing T cells, “blocks stimulation-induced convergence”; in the experiment on GD2 CAR-bearing T cells (listed as Ciliobrevin D) it was “dispersed lytic granules”. In the experiment on CD19 CAR-bearing T cells (ciliobrevin D 30 and 100 μM vs untreated), the “lytic granule positioning (granule distance from the MTOC)” value was “can disperse lytic granules; also recorded: dispersed lytic granules”. Moreover, the “lysis of susceptible target cells (51Cr release)” value in the experiment on YTS cells (YTS against 721.221) is listed as “did not substantively alter total killing; also recorded: slightly increased”; with NK92 cells (NK92 against K562), “did not substantively alter total killing; also recorded: not affected”. In addition, the “non-specific lysis (bystander killing) of 51Cr-labeled Raji cells” value in the experiment with YTS cells (YTS with unlabeled 721.221 targets) and in the experiment on NK92 cells (NK92 with unlabeled K562 targets) was “more non-specific lysis; also recorded: increased” each time. The “more bystander cells lysed compared to DMSO” value in the experiment on CD19 CAR NK cells (12.5 μM) was “approximately 24%”; with CD19 CAR NK cells (25 μM), approximately 39%; with CD19 CAR NK cells (50 μM) it was approximately 40%. Moreover, the “non-specific lysis of Daoy cells” value with CD19 CAR NK cells (12.5, 25 and 50 μM vs DMSO) was “dose-dependent increases”.
